Test results reported in the PolyMetriX glass transition set.
± gives the standard deviation of the reports.

SMILES | glass transition temperature [°C]
*CC(*)(F)C(=O)OCC(F)(F)F (repeat unit) | 124.00
*CC(*)C(=O)OCCCCCCCCCCOc1cnc(-c2ccc(OC(=O)C3COC(C)(C)O3)cc2)nc1 (repeat unit) | 29.00
*c1ccc2c(c1)C(=O)N(c1ccc(Sc3ccc(Sc4ccc(Sc5ccc(Sc6ccc(N7C(=O)c8ccc(C(*)(C(F)(F)F)C(F)(F)F)cc8C7=O)cc6)cc5)cc4)cc3)cc1)C2=O (repeat unit) | 216.00
*c1ccc(Oc2ccc(-n3c(=O)c4cc5c(=O)n(-c6ncc(*)s6)c(=O)c5cc4c3=O)cc2)cc1 (repeat unit) | 328.80
*C(=O)c1ccc2c(c1)C(=O)N(c1cccc(C(=O)Nc3cccc(N4C(=O)c5ccc(*)cc5C4=O)c3)c1)C2=O (repeat unit) | 287.00
*CC(C)(C)CO* (repeat unit) | -50.00
*C1C2CC(C)C(C2)C1* (repeat unit) | 350.00
*CC(=O)Nc1ccc(Oc2ccc(Oc3ccc(NC(=O)c4ccc5c(c4)C(=O)N(*)C5=O)cc3)cc2)cc1 (repeat unit) | 242.00
*c1ccc(Oc2ccc(N3C(=O)c4cccc(Oc5cccc6c5C(=O)N(*)C6=O)c4C3=O)cc2)cc1 (repeat unit) | 293.8 ± 1.8
*CCCCOC(=O)Nc1ccc(Cc2ccc(NC(=O)O*)cc2)cc1 (repeat unit) | 109.00
*OC(F)(F)COC(=O)c1cccc(C(=O)OCC(*)(F)F)c1 (repeat unit) | 28.00
*c1cccc(OCCCOc2cccc(N3C(=O)c4ccc(-c5ccc6c(c5)C(=O)N(*)C6=O)cc4C3=O)c2)c1 (repeat unit) | 184.00
*CC(F)(F)C(F)(F)C(F)(F)C(F)(F)COC(=O)O* (repeat unit) | -41.00
*CC(*)c1ccc([Si](C)(C)O)cc1 (repeat unit) | 147.00
*CCCCCCOC(=O)OCCCOC(=O)OCCCCCCN1C(=O)c2ccc(C(=O)c3ccc4c(c3)C(=O)N(*)C4=O)cc2C1=O (repeat unit) | 61.00
*Nc1ccc(Cc2ccc(NC(=O)c3cc(NC(=O)CCCCCN4C(=O)c5ccccc5C4=O)cc(C(*)=O)c3)cc2)cc1 (repeat unit) | 195.00
*CCN(*)CC (repeat unit) | -32.00
*CC(*)c1ccc(C(=O)N(CC)CC)cc1 (repeat unit) | 102.00
*c1ccc(C(c2ccc(N3C(=O)c4ccc(Oc5ccc6cc(Oc7ccc8c(c7)C(=O)N(*)C8=O)ccc6c5)cc4C3=O)cc2)(C(F)(F)F)C(F)(F)F)cc1 (repeat unit) | 218.00
*c1ccc(C(=O)Nc2ccc(Oc3ccc(S(=O)(=O)c4ccc(Oc5ccc(NC(=O)c6ccc(N7C(=O)c8ccc(-c9ccc%10c(c9)C(=O)N(*)C%10=O)cc8C7=O)cc6)cc5)cc4)cc3)cc2)cc1 (repeat unit) | 258.00
*Oc1ccc(S(=O)(=O)c2ccc(Oc3c(C)cc(Cc4cc(C)c(*)c(C)c4)cc3C)cc2)cc1 (repeat unit) | 232.00
*CC(*)C(=O)OCCCOC (repeat unit) | -66.50

SMILES | glass transition temperature [°C]
*Oc1c(F)c(F)c(-c2c(F)c(F)c(Oc3ccc(Cc4ccc(*)c(C=O)c4)cc3C=O)c(F)c2F)c(F)c1F (repeat unit) | 198.00
*c1cccc(N2C(=O)c3ccc(Oc4cccc5c(Oc6ccc7c(c6)C(=O)N(*)C7=O)cccc45)cc3C2=O)c1 (repeat unit) | 260.00
*Oc1ccc(C(C)(C)c2ccc(Oc3ccc(C(=O)C(=O)c4ccc(*)cc4)cc3)cc2)cc1 (repeat unit) | 152.00
*CC(*)NC=O (repeat unit) | 150.00
*Oc1ccc(S(=O)(=O)c2ccc(OC(=O)c3cc(CCCCC)cc(C(*)=O)c3)cc2)cc1 (repeat unit) | 170.00
*CCCCCOC(=O)NCCCCCCNC(=O)O* (repeat unit) | 33.00
*Oc1c(-c2ccccc2)cc(*)cc1-c1ccc(C)cc1 (repeat unit) | 218.00
*Oc1ccc(C(c2ccc(Oc3ccc(C(=O)c4cccc(-c5cccc(C(=O)c6ccc(*)cc6)c5)c4)cc3)cc2)(C(F)(F)F)C(F)(F)F)cc1 (repeat unit) | 159.00
*C(=O)Nc1ccc(Oc2cccc(Oc3ccc(NC(=O)c4ccc5c(c4)C(=O)N(c4ccc(Oc6cccc(Oc7ccc(N8C(=O)c9ccc(*)cc9C8=O)cc7)c6C#N)cc4)C5=O)cc3)c2C#N)cc1 (repeat unit) | 220.00
*Oc1ccc(S(=O)(=O)c2ccc(Oc3ccc(C(C)(C)c4ccc(*)c(N)c4)cc3N)cc2)cc1 (repeat unit) | 230.40
*CCCCCCCCCCCC(=O)Oc1ccc2ccc(OC(=O)c3ccc4c(c3)C(=O)N(*)C4=O)cc2c1 (repeat unit) | 98.00
*CCN(*)C(=O)c1cc(F)c(F)c(F)c1F (repeat unit) | 97.00
*CC(O)CN(*)c1ccc(/N=N/c2ccc(C(=O)O)cc2)cc1 (repeat unit) | 99.00
*C(=O)Nc1ccc(Oc2ccc(-c3ccc(Oc4ccc(NC(=O)c5ccc6c(c5)C(=O)N(c5ccc(Oc7cccc8c(Oc9ccc(N%10C(=O)c%11ccc(*)cc%11C%10=O)cc9)cccc78)cc5)C6=O)cc4)cc3)cc2)cc1 (repeat unit) | 310.00
*c1ccc(Oc2ccc(S(=O)(=O)c3ccc(Oc4ccc(N5C(=O)c6ccc(Oc7ccc(Oc8ccc9c(c8)C(=O)N(*)C9=O)cc7)cc6C5=O)cc4)cc3)cc2)cc1 (repeat unit) | 201.00
*O[Si](C)(C)CCCCCC[Si](*)(C)C (repeat unit) | -90.00
*Oc1ccc(OC(=O)c2ccc([Si](C)(C)c3ccc(C(*)=O)cc3)cc2)cc1 (repeat unit) | 176.00
*CC(*)(C)C(=O)OC (repeat unit) [poly(methyl methacrylate)] | 108.92 ± 15
*CCCCCC(=O)NNC(=O)c1ccc(C(=O)NNC(=O)CCCCCOc2ccc(O*)c(C)c2)cc1 (repeat unit) | 126.00
*Oc1cc(CCC)cc(OC(=O)c2cccc(C(*)=O)c2)c1 (repeat unit) | 129.00
*c1ccc2c(c1)C(=O)N(c1ccc(OCCOCCOCCOCCOc3ccc(N4C(=O)c5ccc(C(*)(C(F)(F)F)C(F)(F)F)cc5C4=O)cc3)cc1)C2=O (repeat unit) | 140.00
*C[Si](C)(C)[Si](C)(C)[Si](C)(C)[Si](*)(C)C (repeat unit) | -68.00

SMILES | glass transition temperature [°C]
*Oc1ccc(S(=O)(=O)c2ccc(Oc3c(C)cc(C(c4cc(C)c(*)c(C)c4)(C(F)(F)F)C(F)(F)F)cc3C)cc2C(OC)(C(F)(F)F)C(F)(F)F)c(C(OC)(C(F)(F)F)C(F)(F)F)c1 (repeat unit) | 163.00
*Oc1ccc(C(=O)c2cccc(C(=O)c3ccc(*)c(CC)c3)c2)cc1CC (repeat unit) | 126.00
*c1cccc(P(=O)(c2ccccc2)c2cccc(N3C(=O)c4ccc(NC(=O)OCCOc5ccc(C(C)(C)c6ccc(OCCOC(=O)Nc7ccc8c(c7)C(=O)N(*)C8=O)cc6)cc5)cc4C3=O)c2)c1 (repeat unit) | 220.00
*c1ccc2c(c1)C(=O)N(c1ccc(C(=O)Nc3ccc(Oc4ccc(Oc5ccc(NC(=O)c6ccc(N7C(=O)c8ccc(C(*)(C(F)(F)F)C(F)(F)F)cc8C7=O)cc6)cc5)cc4)cc3)cc1)C2=O (repeat unit) | 303.00
*c1ccc(Oc2ccc(C(c3ccc(Oc4ccc(-c5nnc(*)n5-c5ccc(S(=O)(=O)c6ccccc6)cc5)cc4)cc3)(C(F)(F)F)C(F)(F)F)cc2)cc1 (repeat unit) | 211.00
*CCCCCCNC(=O)CCCCCCCC(=O)N* (repeat unit) [Poly(hexamethylene azelamide)] | 50.58 ± 12
*CC(CO*)C(C)(C)C (repeat unit) | -4.00
*CCC1CC(=O)N(*)C1=O (repeat unit) | 131.00
*O[Si](*)(C)C=C (repeat unit) | -129.00
*C#CC#Cc1cc(C(C)(C)C)cc2c3cc(C(C)(C)C)cc(*)c3n(CCCCCCCCCCCCCCCC)c12 (repeat unit) | 67.00
*/C=C/C1CC(*)C2C(=O)N(c3ccccc3C)C(=O)C12 (repeat unit) | 248.00
*CCCCCCOC(=O)NNC(=O)CCCCCCCCC(=O)NNC(=O)O* (repeat unit) | 45.00
*CC(O)CN(*)c1cc(C)c(/N=N/c2ccc(Cl)cc2)c(C)c1 (repeat unit) | 150.00
*CCCCCCCCOC(=O)Nc1ccc(Cc2ccc(NC(=O)O*)cc2)cc1 (repeat unit) | 79.00
*COC(=O)OCC1OC(C)(C)OC1* (repeat unit) | 51.30
*Oc1ccc(C(=O)c2ccc(Oc3ccc(C(c4ccc(*)cc4)(C(F)(F)F)C(F)(F)F)cc3)cc2)c2ccccc12 (repeat unit) | 190.00
*CC(*)(C)C(=O)OCC(C)O (repeat unit) [Poly(2-hydroxypropyl methacrylate)] | 75.4 ± 1.9
*Oc1ccc(CC(NC(=O)CCc2ccc(OC(=O)CCC(*)=O)cc2)C(=O)OCCCCCC)cc1 (repeat unit) | 53.00
*c1ccc(-c2cnc3cc(Oc4ccc5nc(*)cnc5c4)ccc3n2)cc1 (repeat unit) | 306.00
*Oc1ccc(OC(=O)c2cc(OCCCCCCCCCCCC)c(C(*)=O)cc2OCCCCCCCCCCCC)cc1C (repeat unit) | 112.00
*c1ccc(-c2sc(-c3ccc(-n4c(=O)c5cc6c(=O)n(*)c(=O)c6cc5c4=O)cc3)c(-c3ccccc3)c2-c2ccccc2)cc1 (repeat unit) | 460.00
*CCCCCCC(=O)O* (repeat unit) | -14.00
